This note sets out measurements from US9102670B2, “Pyrido-, pyrazo- and pyrimido-pyrimidine derivatives as mTOR inhibitors” (KuDOS Pharmaceuticals Limited, priority 2006, dated 2015).

Each structure is given as a SMILES string.

One experiment concerns phosphorylation of Serine 473 in Akt. As to the kind of experiment: In Vitro Phospho-Ser473 Akt Assay in MDA-MB-468 cells. The format is cell-based. Particulars: Homo sapiens, MDA-MB-468, read-out: IC50 values against mTOR, phospho-Ser473 Akt assay, MDA-MB-468 cells.
The term IC50 denotes the point on the concentration scale where inhibition reaches its midpoint. For `C[C@H]1COCCN1c1nc(N2CCCCC2CO)nc2nc(-c3cccc(C(N)=O)c3)ccc12` (stereo partly drawn) [Example 2f], the IC50 was under 300 nM.

For `COc1ccc(-c2nc(N3CCOC[C@@H]3C)c3ccc(-c4cccc(CO)c4)nc3n2)cn1` [Example 19p], the IC50 is under 100 nM.

For `C[C@@H]1CN(c2nc(N3CCOC[C@@H]3C)c3ncc(-c4ccccc4)nc3n2)C[C@H](C)O1` [Example 12a], the IC50 is under 100 nM.

Take `COc1ccc(-c2ccc3c(N4CCOC[C@@H]4C)nc(N4CCCC(CN(C)C)C4)nc3n2)cc1CO` (stereo partly drawn) [Example 18as]: the IC50 is under 300 nM.

For `COc1ccc(-c2ccc3c(N4CCOC[C@@H]4C)nc(N4CCCCC(N)C4)nc3n2)cc1CO` (stereo partly drawn) [Example 18e], the IC50 was under 300 nM.

On to `C[C@H]1COCCN1c1nc(N2CCOC[C@@H]2C)c2ccc(-c3ccc(N4CCOCC4)nc3)nc2n1` [Example 1q], for which the IC50 is under 300 nM.

As to `COc1ccc(-c2ccc3c(N4CCOC[C@@H]4C)nc(N4CCOC[C@@H]4C)nc3n2)cc1CNCCC(C)(C)C` [Example 4as], the IC50 was under 100 nM.

For the compound `CCCCNCc1cc(-c2ccc3c(N4CCOC[C@@H]4C)nc(N4CCOC[C@@H]4C)nc3n2)ccc1OC` [Example 4ay], the IC50 was under 100 nM.

In the case of `COc1ccc(-c2ccc3c(N4CCOC[C@@H]4C)nc(N(C)CCO)nc3n2)cc1CO` [Example 18cr], the IC50 is under 100 nM.

Take `COc1ccc(-c2ccc3c(N4CCOC[C@@H]4C)nc(N4CC(C)CC(C)C4)nc3n2)cc1CO` (stereo partly drawn) [Example 18ae]: the IC50 is under 100 nM.

Regarding `COc1ccc(-c2ccc3c(N4CCOC[C@@H]4C)nc(N4CCOC[C@@H]4C)nc3n2)cc1C(N)=O` [Example 14b], the IC50 is under 100 nM.

Turning to `COc1ccc(C(=O)C2CCN(c3nc(N4CCOC[C@@H]4C)c4ccc(-c5ccc(OC)c(CO)c5)nc4n3)CC2)cc1` [Example 18w], the IC50 was under 300 nM.

For the compound `COc1ccc(-c2ccc3c(N4CCOC[C@@H]4C)nc(N4CCCCCC4)nc3n2)cc1CO` [Example 18d], the IC50 is under 100 nM.

Take `C[C@@H]1CN(c2nc(N3CCOC[C@@H]3C)c3ccc(-c4ccc([N+](=O)[O-])cc4)nc3n2)C[C@H](C)O1` [Example 1ci]: the IC50 is under 300 nM.

As for `C[C@H]1COCCN1c1nc(N2CCOC[C@@H]2C)c2ccc(-c3cccc(CNC(=O)C(F)(F)F)c3)nc2n1` [Example 5g], the IC50 is under 300 nM.

`COc1ccc(-c2ccc3c(N4CCOC[C@@H]4C)nc(N4CCCC(CO)C4)nc3n2)cc1CO` (stereo partly drawn) [Example 18y]: the IC50 was under 100 nM.

For the compound `C[C@H]1COCCN1c1nc(N2CCOC[C@@H]2C)c2ccc(-c3ccoc3CO)nc2n1` [Example 6a], the IC50 is under 300 nM.

Regarding `Cc1cccc(-c2ccc3c(N4CCOC[C@@H]4C)nc(N4CCOC[C@@H]4C)nc3n2)c1` [Example 1br], the IC50 was under 100 nM.

In the case of `COCc1cc(-c2ccc3c(N4CCOC[C@@H]4C)nc(N4CCOC[C@@H]4C)nc3n2)ccc1F` [Example 9a], the IC50 was under 300 nM.

`C[C@H]1COCCN1c1nc(N2CCOC[C@@H]2C)c2ccc(-c3cccc(CNC(=O)C4CCC4)c3)nc2n1` [Example 5e]: the IC50 was under 300 nM.

Turning to `COc1ccc(-c2ccc3c(N4CCOC[C@@H]4C)nc(N4CCC(CO)CC4)nc3n2)cc1CO` [Example 18x], the IC50 is under 100 nM.

For `COc1ccc(-c2ccc3c(N4CCOC[C@@H]4C)nc(-c4cccc(C(N)=O)c4)nc3n2)cc1CO` [Example 19k], the IC50 is under 300 nM.

Still in this experiment, the particulars now being: Homo sapiens, MDA-MB-468, read-out: IC50 values against mTOR, phospho-Ser473 Akt assay, MDA-MB-468 cells, upper bound.
`C[C@H]1COCCN1c1nc(-c2cccnc2F)nc2nc(-c3cccc(CO)c3)ccc12` [Example 19u]: the IC50 was under 1000 nM.

Turning to `C[C@H]1COCCN1c1nc(N2CCOC[C@@H]2C)c2ccc(-c3ccc(F)c(CNC(=O)C(F)(F)F)c3)nc2n1` [Example 5z], the IC50 is under 1000 nM.

Take `COc1ccc(-c2ccc3c(N4CCOC[C@@H]4C)nc(N4CCC(N5CCCC5)CC4)nc3n2)cc1CO` [Example 18ai]: the IC50 was under 1000 nM.

As to `CNCCNc1nc(N2CCOC[C@@H]2C)c2ccc(-c3ccc(OC)c(CO)c3)nc2n1` [Example 18bv], the IC50 was under 1000 nM.

The experiment is the same for the next values; noted with them: Homo sapiens; phospho-Ser473 Akt assay, MDA-MB-468 cells, upper bound; read-out: IC50 values against mTOR.
Turning to `C[C@H]1COCCN1c1nc(N2CCOC[C@@H]2C)c2ccc(-c3cccc(Cl)n3)nc2n1` [Example 1v], the IC50 was under 1000 nM.
